Assay results: US4822787A, “3-pyrrolidinylthio-1-azabicyclo(3.2.0)-hept-2-ene-2-carboxylic acid compounds and antimicrobial activity thereof” (Fujisawa Pharmaceutical Co., Ltd., priority 1986, dated 1989)
Converted amounts (≈) assume the structure as drawn.

Key:
Type in all cases: cell-based
S. aureus 2496 = assay: in vitro Antimicrobial Activity, two-fold agar-plate dilution method (MIC), S. aureus 2496; settings: Staphylococcus aureus, Mueller Hinton agar, 37° C., 20 hours, read-out: minimal inhibitory concentration (MIC)
Experimental: (§1) in vitro Antimicrobial Activity was determined by the two-fold agar-plate dilution method as described below. One loopful of 100-fold dilution of an overnight culture of a test strain in Mueller Hinton broth (Difco) (approximately 10^6 viable cells per ml) was spot-inoculated on Mueller Hinto agar^(*) (Difco) containing graded concentrations of the test compound, and the minimal inhibitory concentration (MIC) was expressed in terms of μg/ml after incubation at 37° C. for 20 hours.

P. aeruginosa 3036 = assay: in vitro Antimicrobial Activity, two-fold agar-plate dilution method (MIC), P. aeruginosa 3036; settings: Pseudomonas aeruginosa, Mueller Hinton agar, 37° C., 20 hours, read-out: minimal inhibitory concentration (MIC)
Experimental: as §1

E. cloacae 3013 = assay: in vitro Antimicrobial Activity, two-fold agar-plate dilution method (MIC), E. cloacae 3013; settings: Enterobacter cloacae, Mueller Hinton agar, 37° C., 20 hours, read-out: minimal inhibitory concentration (MIC)
Experimental: as §1

H. influenzae 58 = assay: in vitro Antimicrobial Activity, two-fold agar-plate dilution method (MIC), H. influenzae 58; settings: Haemophilus influenzae, added 5% horse blood-chocolate agar, 37° C., 20 hours, read-out: minimal inhibitory concentration (MIC)
Experimental: as §1, with “hours. [(*)added 5% horse blood-chocolate agar for the test of H. influenzae]” for “hours.”

| SMILES | MIC (S. aureus 2496) [µg/mL] | MIC (P. aeruginosa 3036) [µg/mL] | MIC (E. cloacae 3013) [µg/mL] | MIC (H. influenzae 58) [µg/mL] |
| --- | --- | --- | --- | --- |
| C[C@@H](O)[C@H]1C(=O)N2C(C(=O)O)=C(S[C@@H]3CN[C@H](CNC(N)=O)C3)[C@H](C)[C@H]12 [Reference Compound, (4R,5S,6S)-6-[(1R)-1-hydroxyethyl]-4-methyl-7-oxo-3-[(2S,4S)-2-ureidomethylpyrrolidin-4-yl]thio-1-azabicyclo[3.2.0]hept-2-ene-2-carboxylic acid] | 1.56 (≈ 4.06 µM) | 1.56 (≈ 4.06 µM) | 0.1 (≈ 0.26 µM) | 0.78 (≈ 2.03 µM) |
| C[C@@H](O)[C@H]1C(=O)N2C(C(=O)O)=C(S[C@@H]3CN[C@H](COCCNC(N)=O)C3)[C@H](C)[C@H]12 [Compound of this invention, (4R,5S,6S)-6-[(1R)-1-hydroxyethyl]-4-methyl-7-oxo-3-[(2S,4S)-2-{(2-ureidoethyl)oxymethyl}pyrrolidin-4-yl]thio-1-azabicyclo[3.2.0]hept-2-ene-2-carboxylic acid] | 0.05 (≈ 0.117 µM) | 0.39 (≈ 0.91 µM) | ≤ 0.025 | 0.1 (≈ 0.233 µM) |
